Here are results for 26 molecules from patent US12370182B2, “Bicyclic derivatives as GABAA A5 receptor modulators” (RICHTER GEDEON NYRT., priority 2018, dated 2025).

The Ki is a measure of affinity in units of concentration, obtained from inhibition or displacement.

In this assay the target is human recombinant GABAA α5β3γ2 receptor (Homo sapiens (Human), UniProt P18507+P31644). Kind of assay: Binding assay, [3H]Ro151788 displacement on membranes of HEK cells. To be noted: 0.5 nM [3H]Ro151788, 60 minutes at 4° C., Cheng-Prusoff; read-out: hGABAA α5 Ki. The method, then:
The GABAA α5β3γ2 protein used for the receptor binding assay was derived from membranes produced from HEK cells (Millipore CYL3073) expressing the human recombinant GABAA α5β3γ2 receptor. Cells were stored and cultured in-house according to the instructions provided by the vendor (Millipor). Cell pellet was homogenized in 10 times modified Krebs Henseleit buffer (membrane preparation buffer): 20 mM Tris, 120 mM NaCl, 100 mM KCl, 25 mM CaCl2) and 25 mM MgCl2 pH=7.4 at 4° C. using Ultra Turrax (Janke&Kunkel) maximal speed for 15 seconds. The homogenate was centrifuged at 40,000 g for 30 minutes at 4° C. Supernatant was discarded and the resulting pellet was washed in membrane preparation buffer. Pellet was resuspended in membrane preparation buffer and aliquots of 1.4 mL ampulles were stored at −70° C. until use.
Receptor binding assays were performed in 96-well format in deep-well plates. For each 96-well plate one ampulle of membrane homogenate was thawed and diluted in binding buffer (50 mM Tris pH=7.4, 100 mM KCl) and 200 μL was dispensed into each well. Radioligand [^3H]Ro151788 (Perkin Elmer: NET757250UC) was prepared in binding buffer and added to each well in 50 μL volume to give final concentration of 0.5 nM. Test compounds in suitable concentration(s) were added in additional 50 μL. The final assay volume was 300 μL. Incubation was carried out for 60 minutes at 4° C. For non-specific binding 10 μM unlabeled diazepam was used. After incubation samples were filtered over UniFilter® GF/B™ using Filtermate Harvester (Perkin Elmer) and washed with 5×1 mL binding buffer. The plate was dried at 40° C. for an hour and 40 μL Microscint (Perkin Elmer) scintillation cocktail was added to each well. The plate was read in Microbeta (Perkin Elmer).
The specific radioligand binding (SB) was defined as the difference between total binding (Tot) and the non-specific binding (NSB). Results are expressed as a percent inhibition of specific binding obtained in the presence of compound of interest.
For IC50 and Ki determination a minimum of six drug concentrations in triplicate were used. […] Ki values (i.e. inhibition constants) were calculated using the Cheng-Prusoff equation Ki=IC50/[1+(L/KD)], where [L] is the radioligand concentration and KD the affinity of the labelled ligand for receptor. KD was determined from the Saturation analyses.

Sequence of human recombinant GABAA α5β3γ2 receptor (P31644 32-462): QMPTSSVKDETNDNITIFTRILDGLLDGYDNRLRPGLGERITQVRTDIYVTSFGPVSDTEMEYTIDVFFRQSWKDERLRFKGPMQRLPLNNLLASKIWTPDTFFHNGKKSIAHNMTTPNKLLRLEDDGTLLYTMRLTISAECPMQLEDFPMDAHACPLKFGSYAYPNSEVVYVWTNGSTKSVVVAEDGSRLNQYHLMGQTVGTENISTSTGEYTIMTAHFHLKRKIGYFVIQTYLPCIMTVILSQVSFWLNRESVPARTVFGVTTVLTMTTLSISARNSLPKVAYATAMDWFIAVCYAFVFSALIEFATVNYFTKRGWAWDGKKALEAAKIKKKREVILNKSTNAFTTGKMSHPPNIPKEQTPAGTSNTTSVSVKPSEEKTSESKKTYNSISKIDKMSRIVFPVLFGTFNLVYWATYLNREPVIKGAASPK
Sequence of human recombinant GABAA α5β3γ2 receptor (P28472 26-473 partner): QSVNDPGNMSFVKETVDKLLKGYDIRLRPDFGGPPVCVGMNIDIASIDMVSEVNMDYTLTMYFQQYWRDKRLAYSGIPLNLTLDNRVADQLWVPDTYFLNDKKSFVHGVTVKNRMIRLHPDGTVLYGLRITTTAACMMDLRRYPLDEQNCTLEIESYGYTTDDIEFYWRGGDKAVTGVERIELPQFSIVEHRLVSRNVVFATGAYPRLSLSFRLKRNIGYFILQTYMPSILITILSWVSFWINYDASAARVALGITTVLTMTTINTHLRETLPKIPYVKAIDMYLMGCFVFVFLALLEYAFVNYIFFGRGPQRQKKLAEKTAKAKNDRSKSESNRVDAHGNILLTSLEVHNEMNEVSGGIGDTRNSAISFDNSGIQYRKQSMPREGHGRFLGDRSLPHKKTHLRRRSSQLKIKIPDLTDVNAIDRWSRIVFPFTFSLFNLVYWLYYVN
Sequence of human recombinant GABAA α5β3γ2 receptor (P18507 40-475): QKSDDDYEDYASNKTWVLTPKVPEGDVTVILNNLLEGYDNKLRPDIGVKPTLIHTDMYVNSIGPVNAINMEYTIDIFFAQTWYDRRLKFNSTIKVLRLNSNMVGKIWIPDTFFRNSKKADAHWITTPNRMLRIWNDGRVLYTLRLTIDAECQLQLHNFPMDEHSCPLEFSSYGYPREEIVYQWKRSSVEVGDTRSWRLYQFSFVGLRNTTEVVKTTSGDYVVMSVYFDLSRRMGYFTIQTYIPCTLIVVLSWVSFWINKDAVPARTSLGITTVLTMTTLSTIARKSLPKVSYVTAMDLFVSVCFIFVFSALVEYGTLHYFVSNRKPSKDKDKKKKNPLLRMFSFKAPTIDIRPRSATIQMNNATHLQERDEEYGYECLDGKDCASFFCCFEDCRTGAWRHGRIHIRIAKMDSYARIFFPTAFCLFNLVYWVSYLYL

Regarding `Cc1nnn(-c2ccc(F)cc2)c1COc1ccc2c(n1)CCN(C(=O)[C@@H]1CCC(=O)N1C)C2` [Example 40, (5S)-5-(2-{[1-(4-fluorophenyl)-4-methyl-1H-1,2,3-triazol-5-yl]methoxy}-5,6,7,8-tetrahydro-1,6-naphthyridine-6-carbonyl)-1-methylpyrrolidin-2-one], the Ki worked out at 56 nM.
With `Cc1nnn(-c2ccc(F)cc2)c1COc1ccc2c(n1)CCN(C(=O)[C@H]1CCC(=O)N1C)C2` [Example 41, (5R)-5-(2-{[1-(4-fluorophenyl)-4-methyl-1H-1,2,3-triazol-5-yl]methoxy}-5,6,7,8-tetrahydro-1,6-naphthyridine-6-carbonyl)-1-methylpyrrolidin-2-one], the Ki worked out at 67 nM.
For `COCC(=O)N1CCc2nc(OCc3c(C)nnn3-c3ccc(Cl)cc3)ccc2C1` [Example 42, 1-(2-{[1-(4-chlorophenyl)-4-methyl-1H-1,2,3-triazol-5-yl]methoxy}-5,6,7,8-tetrahydro-1,6-naphthyridin-6-yl)-2-methoxyethan-1-one] the value was 13 nM; for `CCN1CC(C(=O)N2CCc3nc(OCc4c(C)nnn4-c4ccc(F)cc4)ccc3C2)CC1=O` (centres unmarked) [Example 43, 1-ethyl-4-(2-{[1-(4-fluorophenyl)-4-methyl-1H-1,2,3-triazol-5-yl]methoxy}-5,6,7,8-tetrahydro-1,6-naphthyridine-6-carbonyl)pyrrolidin-2-one], 30 nM.
For `Cc1nnn(-c2ccc(F)cc2)c1COc1ccc2c(n1)CCN(C(=O)C1CC(=O)N(C(C)C)C1)C2` (centres unmarked) [Example 44, 4-(2-{[1-(4-fluorophenyl)-4-methyl-1H-1,2,3-triazol-5-yl]methoxy}-5,6,7,8-tetrahydro-1,6-naphthyridine-6-carbonyl)-1-(propan-2-yl)pyrrolidin-2-one] the value was 54 nM; for `Cc1nnn(-c2ccc(F)cc2)c1COc1ccc2c(n1)CCN(C(=O)C1CCC(=O)N(C)C1)C2` (centres unmarked) [Example 46, 5-(2-{[1-(4-fluorophenyl)-4-methyl-1H-1,2,3-triazol-5-yl]methoxy}-5,6,7,8-tetrahydro-1,6-naphthyridine-6-carbonyl)-1-methylpiperidin-2-one], 84 nM.
For `Cc1onc(-c2ccc(F)cc2)c1COc1ccc2c(n1)CCN(C(=O)CCS(C)(=O)=O)C2` [Example 48, 1-(2-{[3-(4-fluorophenyl)-5-methyl-1,2-oxazol-4-yl]methoxy}-5,6,7,8-tetrahydro-1,6-naphthyridin-6-yl)-3-methanesulfonylpropan-1-one] the value was 33 nM; for `Cc1onc(-c2ccc(F)cc2)c1COc1ccc2c(n1)CN(C(=O)CS(C)(=O)=O)C2` [Example 49, 1-(2-{[3-(4-fluorophenyl)-5-methyl-1,2-oxazol-4-yl]methoxy}-5H,6H,7H-pyrrolo[3,4-b]pyridin-6-yl)-2-methanesulfonylethan-1-one], 1.2 nM.
With `CC(=O)N1Cc2ccc(OCc3c(-c4ccc(F)cc4)noc3C)nc2C1` [Example 50, 1-(2-{[3-(4-fluorophenyl)-5-methyl-1,2-oxazol-4-yl]methoxy}-5,7-dihydro-6H-pyrrolo[3,4-b]pyridin-6-yl)ethanone], the Ki was determined as 0.8 nM.
For `CCC(=O)N1Cc2ccc(OCc3c(C)nnn3-c3ccc(F)cc3)nc2C1` [Example 52, 1-(2-{[1-(4-fluorophenyl)-4-methyl-1H-1,2,3-triazol-5-yl]methoxy}-5,7-dihydro-6H-pyrrolo[3,4-b]pyridin-6-yl)propan-1-one] the value was 37 nM; for `Cc1nnn(-c2ccc(F)cc2)c1COc1ccc2c(n1)CN(C(=O)C(F)F)C2` [Example 53, 2,2-difluoro-1-(2-{[1-(4-fluorophenyl)-4-methyl-1H-1,2,3-triazol-5-yl]methoxy}-5,7-dihydro-6H-pyrrolo[3,4-b]pyridin-6-yl)ethanone], 11 nM.
For `Cc1nnn(-c2ccc(F)cc2)c1COc1ccc2c(n1)CN(C(=O)CF)C2` [Example 54, 2-fluoro-1-(2-{[1-(4-fluorophenyl)-4-methyl-1H-1,2,3-triazol-5-yl]methoxy}-5,7-dihydro-6H-pyrrolo[3,4-b]pyridin-6-yl)ethanone] the value was 5.3 nM; for `Cc1nnn(-c2ccc(F)cc2)c1COc1ccc2c(n1)CN(C(=O)C1CCOCC1)C2` [Example 55, 1-(4-fluorophenyl)-4-methyl-5-({[6-(oxane-4-carbonyl)-5H,6H,7H-pyrrolo[3,4-b]pyridin-2-yl]oxy}methyl)-1H-1,2,3-triazole], 13 nM; for `Cc1nnn(-c2ccc(F)cc2)c1COc1ccc2c(n1)CN(C(=O)C1CCC1)C2` [Example 57, 5-[({6-cyclobutanecarbonyl-5H,6H,7H-pyrrolo[3,4-b]pyridin-2-yl}oxy)methyl]-1-(4-fluorophenyl)-4-methyl-1H-1,2,3-triazole], 14 nM.
For `Cc1nnn(-c2ccc(F)cc2)c1COc1ccc2c(n1)CN(C(=O)C(C)C)C2` [Example 58, 1-(2-{[1-(4-fluorophenyl)-4-methyl-1H-1,2,3-triazol-5-yl]methoxy}-5H,6H,7H-pyrrolo[3,4-b]pyridin-6-yl)-2-methylpropan-1-one] the value was 13 nM.
As for `Cc1nnn(-c2ccc(F)cc2)c1COc1ccc2c(n1)CN(C(=O)C(C)(C)C)C2` [Example 59, 1-(2-{[1-(4-fluorophenyl)-4-methyl-1H-1,2,3-triazol-5-yl]methoxy}-5H,6H,7H-pyrrolo[3,4-b]pyridin-6-yl)-2,2-dimethylpropan-1-one], the Ki amounted to 31 nM.
For `CC(=O)N1Cc2ccc(OCc3c(C)nnn3-c3ccc(Cl)cc3)nc2C1` [Example 60, 1-(2-{[1-(4-chlorophenyl)-4-methyl-1H-1,2,3-triazol-5-yl]methoxy}-5,7-dihydro-6H-pyrrolo[3,4-b]pyridin-6-yl)ethanone] the value was 1.2 nM; for `Cc1nnn(-c2ccc(F)cc2)c1COc1ccc2c(n1)CN(C(=O)C1CCOC1)C2` (centres unmarked) [Example 62, 1-(4-fluorophenyl)-4-methyl-5-({[6-(oxolane-3-carbonyl)-5H,6H,7H-pyrrolo[3,4-b]pyridin-2-yl]oxy}methyl)-1H-1,2,3-triazole], 5.7 nM.
For `Cc1nnn(-c2ccc(F)cc2)c1COc1ccc2c(n1)CN(C(=O)C1CCCOC1)C2` (centres unmarked) [Example 63, 1-(4-fluorophenyl)-4-methyl-5-({[6-(oxane-3-carbonyl)-5H,6H,7H-pyrrolo[3,4-b]pyridin-2-yl]oxy}methyl)-1H-1,2,3-triazole] the value was 9.5 nM; for `Cc1nnn(-c2ccc(F)cc2)c1COc1ccc2c(n1)CN(C(=O)c1ccncc1)C2` [Example 64, 4-(2-{[1-(4-fluorophenyl)-4-methyl-1H-1,2,3-triazol-5-yl]methoxy}-5H,6H,7H-pyrrolo[3,4-b]pyridine-6-carbonyl)pyridine], 25 nM; for `Cc1nnn(-c2ccc(F)cc2)c1COc1ccc2c(n1)CN(C(=O)c1cccnc1)C2` [Example 65, 3-(2-{[1-(4-fluorophenyl)-4-methyl-1H-1,2,3-triazol-5-yl]methoxy}-5H,6H,7H-pyrrolo[3,4-b]pyridine-6-carbonyl)pyridine], 28 nM.
For `Cc1nnn(-c2ccc(F)cc2)c1COc1ccc2c(n1)CN(C(=O)c1ccccn1)C2` [Example 66, 2-(2-{[1-(4-fluorophenyl)-4-methyl-1H-1,2,3-triazol-5-yl]methoxy}-5H,6H,7H-pyrrolo[3,4-b]pyridine-6-carbonyl)pyridine] the value was 59 nM.
For the molecule `CC(=O)N1Cc2ccc(OCc3c(-c4ccc(F)cc4)nnn3C)nc2C1` [Example 67, 1-(2-{[4-(4-fluorophenyl)-1-methyl-1H-1,2,3-triazol-5-yl]methoxy}-5,7-dihydro-6H-pyrrolo[3,4-b]pyridin-6-yl)ethanone], the Ki came out at 20 nM.
For `CC(=O)N1Cc2ccc(OCc3c(-c4ccc(Cl)cc4)nnn3C)nc2C1` [Example 68, 1-(2-{[4-(4-chlorophenyl)-1-methyl-1H-1,2,3-triazol-5-yl]methoxy}-5,7-dihydro-6H-pyrrolo[3,4-b]pyridin-6-yl)ethanone] the value was 7.5 nM; for `CCC(=O)N1Cc2ccc(OCc3c(-c4ccc(F)cc4)nnn3C)nc2C1` [Example 69, 1-(2-{[4-(4-fluorophenyl)-1-methyl-1H-1,2,3-triazol-5-yl]methoxy}-5,7-dihydro-6H-pyrrolo[3,4-b]pyridin-6-yl)propan-1-one], 25 nM; for `Cn1nnc(-c2ccc(F)cc2)c1COc1ccc2c(n1)CN(C(=O)CF)C2` [Example 70, 2-fluoro-1-(2-{[4-(4-fluorophenyl)-1-methyl-1H-1,2,3-triazol-5-yl]methoxy}-5,7-dihydro-6H-pyrrolo[3,4-b]pyridin-6-yl)ethanone], 9.2 nM.
